The record followed here is ChEMBL document CHEMBL4842378, “An Enantiodefined Conformationally Constrained Fatty Acid Mimetic and Potent Inhibitor of ToxT” (ACS Med Chem Lett, 2021).

Experiment [1] concerns the target T1, TCP pilus virulence regulatory protein (Vibrio cholerae serotype O1 (strain ATCC 39541 / Classical Ogawa 395 /O395)) (UniProt A5F384).
T1 sequence (whole entry): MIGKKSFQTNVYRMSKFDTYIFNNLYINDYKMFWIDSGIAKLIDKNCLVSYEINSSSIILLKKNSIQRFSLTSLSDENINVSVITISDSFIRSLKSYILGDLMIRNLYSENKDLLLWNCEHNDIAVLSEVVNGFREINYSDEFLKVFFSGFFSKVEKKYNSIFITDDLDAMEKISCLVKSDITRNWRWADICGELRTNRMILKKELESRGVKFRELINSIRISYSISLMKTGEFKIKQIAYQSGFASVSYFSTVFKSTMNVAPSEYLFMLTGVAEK
In words: Inhibition of wild type ToxT in Vibrio cholerae El Tor strain C6706 at 500 nM measured after 3.5 hrs by beta-galactosidase assay relative to control.

In experiment [2] the target is T1, TCP pilus virulence regulatory protein (Vibrio cholerae serotype O1 (strain ATCC 39541 / Classical Ogawa 395 /O395)). In words: Inhibition of ToxT in Vibrio cholerae at upto 5 uM measured after 3.5 hrs by beta-galactosidase assay relative to control. The settings on record: dose microM <=5, time 3.5 hrs.
The target is the same in experiment [3]. In words: Inhibition of ToxT in delattoxT tcpA-linked LacZ reporter gene harboring Vibrio cholerae at 500 nM measured after 3.5 hrs by beta-galactosidase assay relative to control.

Activity calls are given as the source filed them. The rule behind the calls is not given here.

Turning to `CCCC1=C2CCC[C@@]2(C)CC[C@@H]1CCC(=O)O`, the inhibition in experiment [1] amounted to 60%.
Same read-out and setting: then `CCCCC1=C2CCC[C@@]2(C)CC[C@@H]1CCC(=O)O`, with 80%.
As for `CCCC1=C2CCC[C@@]2(C)CC[C@@H]1CC/C=C/C(=O)O`, in experiment [1], the inhibition entry was “Active”.
Regarding `CCCCC1=C2CCC[C@@]2(C)CC[C@@H]1CC/C=C/C(=O)O`, the inhibition in experiment [1] stood at 25%.
On to `O=C(O)CCCN1C(=O)c2cccc3cccc(c23)C1=O`, for which the inhibition in experiment [2] was 20%.
Regarding `CCCCC1=C2CCC[C@]2(C)CC[C@H]1CCC(=O)O`, the inhibition in experiment [1] is 50%.
For the compound `Cc1cccc2c1C(CCC(=O)O)CCC2` (racemic), the inhibition is 80% in experiment [3] and 45% in experiment [1].
